The values below come from patent US8846675B2, “N-linked heterocyclic receptor agonists for the treatment of diabetes and metabolic disorders” (Cymabay Therapeutics, Inc., priority 2007, dated 2014).

The experiment addresses T1, IC-GPCR2 (Homo sapiens, UniProt Q8TDV5).
T1 construct: expressed in transfected cells
T1 sequence (Q8TDV5 1-335 S309L): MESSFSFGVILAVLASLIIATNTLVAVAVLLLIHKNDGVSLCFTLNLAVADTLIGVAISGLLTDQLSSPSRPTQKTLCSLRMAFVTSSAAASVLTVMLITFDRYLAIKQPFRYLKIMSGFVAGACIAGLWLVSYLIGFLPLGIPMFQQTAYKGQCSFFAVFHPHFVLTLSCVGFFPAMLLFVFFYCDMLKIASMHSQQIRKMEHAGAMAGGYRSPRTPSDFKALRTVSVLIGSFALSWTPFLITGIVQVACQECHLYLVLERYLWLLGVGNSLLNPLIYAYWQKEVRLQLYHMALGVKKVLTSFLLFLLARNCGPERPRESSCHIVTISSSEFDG
Kind of experiment: Stimulation of cAMP in CHO cell line stably expressing IC-GPCR2 (HTRF cAMP dynamic kit). Conditions: 3 μM compound; relative to maximal activity of 5-Ethyl-2-{4-[4-(4-tetrazol-1-yl-phenoxymethyl)-thiazol-2-yl]-piperidin-1-yl}-pyrimidine (=100%); IC-GPCR2 stably expressing CHO cells, 30 minutes. Type of experiment: cell-based. How it is done: This assay was developed using a stable cell line expressing IC-GPCR-2, generated as follows. IC-GPCR2 (Seq. ID No. 1) was cloned into Gateway pDEST 40vector (Invitrogen), using the Gateway cloning system (invitrogen) according to the manufacturers instructions. A stable cell line was generated by transfecting a 10 cm plate of CHO cells (source) with 8 ug of this construct using Transit-CHO transfection kit (Mirus). CHO cells were plated the day prior to transfection at a density of 3,000,000 cells/plate. Clones were selected using the antibiotic G418 at 500 ug/ml. 23 clones were picked and assayed for the expression of the receptor by measuring changes in intracellular cAMP levels in response to an IC-GPCR2 agonist (Arena 51).
To measure cAMP activity in response to IC-GPCR2 agonist, the clones were plated in 96 well plates at 17500 cells per well. On the day after plating, cells were incubated with the IC-CPCR2 agonist at […] for 30 minutes in Ham's F12 Media (Gibco) with 0.04% DMSO. cAMP was measured using the cAMP dynamic kit from C is Bio (Bedford, Mass.) according to the manufacturers instructions. Briefly, cells were lysed, and cAMP levels determined by competitive immunoassay using D2 labeled cAMP, and europium cryptate tagged anti cAMP antibody. When in close proximity, the D2 and europium cryptate undergo fluorescence resonance energy transfer (FRET), which is measured as a fluorescence ratio (665 nm/620 nm). Unlabelled cAMP in the cell lysatc competed with the D2 labeled cAMP for the europium crypate labeled antibody. The resulting decrease in FRET signal corresponded to intracellular cAMP levels. Fluorescence was read on a BMG Labtech PHERAstar, software version 1.50.
The clone with the greatest response to IC-GPCR2 agonist was selected for the screening assay.
Compounds were dissolved in 100% DMSO to a concentration of […] to provide stock solutions. To determine activity against IC-GPCR2, compounds were incubated with IC-GPCR2 stably expressing cells (described above), at 6-8 concentrations ranging from 0.00003 to 10 micromolar, in 96 well plates, in 50 ul of Hams F12 media for 30 minutes. Cells were plated at 17500 cells per well 1 day before running the assay. All compounds were also screened against the parental CHO cells. cAMP was measured using the cAMP dynamic kit from Cis Bio (Bedford, Mass.), according to the manufacturer's instructions. Briefly, cells were lysed and cAMP levels determined by competitive immunoassay using D2 labeled cAMP, and europium cryptate tagged anti cAMP antibody. When in close proximity, the D2 and europium cryptate undergo fluorescence resonance energy transfer (FRET), which is measured as a fluorescence ratio (665 nm/620 nm). Unlabelled cAMP in the cell lysate competed with the D2 labeled cAMP for the europium crypate labeled antibody. The resulting decrease in FRET signal corresponded to intracellular cAMP levels
To determine percent activity for a tested compound, the FRET signal value obtained at a particular concentration are compared to the Maximal FRET signal value obtained for 5-Ethyl-2-{4-[4-(4-tetrazol-1-yl-phenoxymethyl)-thiazol-2-yl]-piperidin-1-yl}-pyrimidine. The maximal activity of 5-Ethyl-2-{4-[4-(4-tetrazol-1-yl-phenoxymethyl)-thiazol-2-yl]-piperidin-1-yl}-pyrimidine is designated as 100% activity. Typically, the concentration of 5-Ethyl-2-{4-[4-(4-tetrazol-1-yl-phenoxymethyl)-thiazol-2-yl]-piperidin-1-yl}-pyrimidine in the assay was approximately 0.1 μM. The synthesis of 5-Ethyl-2-{4-[4-(4-tetrazol-1-yl-phenoxymethyl)-thiazol-2-yl]-piperidin-1-yl}-pyrimidine is disclosed in co-owned pending U.S. patent application Ser. No. 11/964,461, herein incorporated by reference. Activities of compounds that were tested are shown in Table 1 below and are expressed as % activity at 3 μM compound compared to the maximal activity of 5-Ethyl-2-{4-[4-(4-tetrazol-1-yl-phenoxymethyl)-thiazol-2-yl]-piperidin-1-yl}-pyrimidine at 3 μM.
(In general: Time-resolved FRET reads energy transfer from a long-lived donor to a nearby acceptor.)

Each structure is given as a SMILES string.

With `CC(C)(C)OC(=O)N1CCC(n2cc(COc3ccc(S(C)(=O)=O)cc3)nn2)CC1` [Example 21, 4-[4-(4-Methanesulfonyl-phenoxymethyl)[1,2,3]triazol-1-yl]-piperidine-1-carboxylic acid tert-butyl ester], the “% activity at 3 μM” value came to 63.66%. Take `FC(F)(F)c1cnc(N2CCC(n3ncc(COc4ccc(-n5cnnn5)nc4)n3)CC2)nc1` [Example 22, 2-{4-[4-(6-Tetrazol-1-yl-pyridin-3-yloxymethyl)-[1,2,3]triazol-2-yl]-piperidin-1-yl}-5-trifluoromethyl-pyrimidine]: the “% activity at 3 μM” value amounted to 78.44%. Then `c1cc(-n2cnnn2)ncc1OCc1cnn(C2CCN(c3nc(C4CC4)no3)CC2)n1` [Example 29, 5-{2-[1-(3-Cyclopropyl-[1,2,4]oxadiazol-5-yl)-piperidin-4-yl]-2H-[1,2,3]triazol-4-ylmethoxy}-2-tetrazol-1-yl-pyridine], with 48.76%; and `Fc1cnc(N2CCC(n3ncc(COc4ccc(-n5cnnn5)cc4F)n3)CC2)nc1` [Example 30, 5-Fluoro-2-(4-(4-((2-fluoro-4-(1H-tetrazol-1-yl)phenoxy)methyl)-2H-1,2,3-triazol-2-yl)piperidin-1-yl)pyrimidine], with 53.41%. As for `Fc1cnc(N2CCC(n3ncc(COc4ccc(-n5cnnn5)nc4)n3)CC2)nc1` [Example 31, 2-(4-(4-((6-(1H-tetrazol-1-yl)pyridin-3-yloxy)methyl)-2H-1,2,3-triazol-2-yl)piperidin-1-yl)-5-fluoropyrimidine], the “% activity at 3 μM” value amounted to 59.95%. `CCc1cnc(N2CCC(n3ncc(COc4ccc(-n5cnnn5)nc4)n3)CC2)nc1` [Example 32, 2-(4-(4-((6-(1H-tetrazol-1-yl)pyridin-3-yloxy)methyl)-2H-1,2,3-triazol-2-yl)piperidin-1-yl)-5-ethylpyrimidine]: the “% activity at 3 μM” value stood at 75.55%.

As to `CC(C)OC(=O)N1CCC(n2ncc(COc3ccc(-n4cnnn4)nc3)n2)CC1` [Example 35, Isopropyl 4-(4-((6-(1H-tetrazol-1-yl)pyridin-3-yloxy)methyl)-2H-1,2,3-triazol-2-yl)piperidine-1-carboxylate], the “% activity at 3 μM” value came out at 72.14%. `CC(C)OC(=O)N1CCC(n2ncc(COc3ccc(S(C)(=O)=O)cc3F)n2)CC1` [Example 36, Isopropyl 4-(4-((2-fluoro-4-(methylsulfonyl)phenoxy)methyl)-2H-1,2,3-triazol-2-yl)piperidine-1-carboxylate]: the “% activity at 3 μM” value came out at 70.06%.

Regarding `CC(C)OC(=O)N1CCC(n2ncc(COc3ccc(-n4cnnn4)cc3F)n2)CC1` [Example 37, Isopropyl 4-(4-((2-fluoro-4-(1H-tetrazol-1-yl)phenoxy)methyl)-2H-1,2,3-triazol-2-yl)piperidine-1-carboxylate], the “% activity at 3 μM” value was determined as 62.88%. For `O=S(=O)(c1c[nH]cn1)N1CCC(n2ncc(COc3ccc(-n4cnnn4)nc3)n2)CC1` [Example 40, 5-((2-(1-(1H-Imidazol-4-ylsulfonyl)piperidin-4-yl)-2H-1,2,3-triazol-4-yl)methoxy)-2-(1H-tetrazol-1-yl)pyridine], the “% activity at 3 μM” value is listed as 7.10%. As for `O=S(=O)(C1CC1)N1CCC(n2ncc(COc3ccc(-n4cnnn4)nc3)n2)CC1` [Example 41, 5-((2-(1-(Cyclopropylsulfonyl)piperidin-4-yl)-2H-1,2,3-triazol-4-yl)methoxy)-2-(1H-tetrazol-1-yl)pyridine], the “% activity at 3 μM” value is reported as 42.63%. Regarding `O=S(=O)(C1CCCCC1)N1CCC(n2ncc(COc3ccc(-n4cnnn4)nc3)n2)CC1` [Example 44, 5-((2-(1-(Cyclohexylsulfonyl)piperidin-4-yl)-2H-1,2,3-triazol-4-yl)methoxy)-2-(1H-tetrazol-1-yl)pyridine], the “% activity at 3 μM” value is 70.92%. As to `CC(C)S(=O)(=O)N1CCC(n2ncc(COc3ccc(-n4cnnn4)nc3)n2)CC1` [Example 45, 5-((2-(1-(Isopropylsulfonyl)piperidin-4-yl)-2H-1,2,3-triazol-4-yl)methoxy)-2-(1H-tetrazol-1-yl)pyridine], the “% activity at 3 μM” value was 67.58%.
